Assay results published in a melting point compilation (Tetko et al.; mined from patent text by program, amines drawn as free bases though some values may be those of a salt).

| SMILES | melting point [°C] |
| --- | --- |
| CCN1C(=O)C(C)(C)C(=O)N(C)c2cc(CN(CCn3ccc4oc(C)cc4c3=O)Cc3ccccc3CO)ccc21 | 159 to 161 |
| O=C(O)Cc1ccc(NC(=O)C(COc2ccc(Cl)cc2)NS(=O)(=O)c2ccc(I)cc2)cc1 (racemic) | 196 to 198 |
| CCN(CC)C(=O)Cc1ccc(O)c(C(C)C)c1 | 112 to 113 |
| CCCCCCCCNc1nc(NCC(O)C2CC(C)(C)NC(C)(C)C2)nc(NCC(O)C2CC(C)(C)NC(C)(C)C2)n1 (stereo not given) | 117 to 119 |
| COc1cc2c(cc1F)C(=Cc1ccc(S(C)=O)cc1)C(C)=C2CC(=O)O (stereo not given) | 190 to 193 |
| O=C1CCc2ccc(OCCCCBr)cc2N1 | 106 to 109 |
| C[C@@H](Cn1ncc2ccc3c(c21)O[C@@H](CO)CO3)NC(=O)OCc1ccccc1 | 116 to 117 |
| CON=C(C)c1c(C)sc(C)c1CS(=O)(=O)C1=NOC(C)(C)C1 | 95 to 96 |
| CC(=O)c1ccc2c(c1)CCN(Cc1ccccc1)CC2 | 89 to 91 |
| N#Cc1nc(Cl)nc(N2CCS(=O)CC2)c1Cl | 145 to 147 |
| CCCCc1nc2c(N)nc3cccnc3c2n1CCNC(=O)Cc1cccc(O)c1 | 208 to 210 |
| CCCCc1cn(Cc2ccc(-c3ccccc3C(=O)O)cc2)c2cccc(SC)c2c1=O | 155 |
| O=C(NCc1ccc(Cl)cc1)c1cn2c3c(cc(CN4CCOCC4)cc3c1=O)OC(CN1CCCC1)C2 (stereo not given) | 210 to 212 |
| CCCCCc1ccc(CCc2ccc(-c3ccc(OC(F)F)cc3)cc2)cc1 | 121 |
| CN(O)C(=O)NCCc1cc2ccccc2o1 | 120 |
| COC(=O)c1c(N(C)C(C)=O)cc(C)cc1N(C)C(C)=O | 163 to 164 |
| Cc1cc(CC(=O)O)cc2c1[nH]c1ccccc12 | 177 to 179 |
| Cc1cccnc1N[C@H]1CC[C@H](C2CCCCC2)CC1 | 65 to 67 |
| O=C(NCc1ccc(Cl)cc1)c1cn2c3c(cc(C#CCO)cc3c1=O)CC2CO (stereo not given) | 224 to 225 |
| O=C(c1cncnc1)c1ccc(Cl)cc1Cl | 75 to 78 |

| SMILES | melting point [°C] |
| --- | --- |
| CC(=O)Oc1ccccc1[C@@H]1SC(C)(C)[C@H](C(=O)O)N1C(C)=O | 214 to 216 |
| N#CC1(c2ccc(Cl)cc2)C2CC3CC(C2)CC1C3 (stereo not given) | 132 to 133 |
| CC(C)NC(=O)N1CCc2[nH]cnc2C1 | 190 |
| O=C(NC1CCN(CCc2ccccc2)C1)C12CC3CC(CC(C3)C1)C2 (stereo not given) | 119 to 121 |
| CCOC(=O)c1cc(C)nc2sc(C(N)=O)c(N)c12 | 205 to 208 |
| Oc1ccc2c(c1)C1CNCC(C2)C1 (stereo not given) | 215 to 217 |
| COc1cc(OC)nc(OC(C(=O)O)C(OC)(c2ccccc2)c2ccccc2)n1 (stereo not given) | 16 to 17 |
| CNS(=O)(=O)c1cccnc1S(=O)(=O)NC(=O)Nc1nc(OC)cc(OC)n1 | 147 to 148 |
| CCn1cc(C(=O)O)c(=O)c2ccc(N3CCNCC3)nc21 | 272 to 273 |
| CN(C)C(=O)Nc1ccc(O)c([N+](=O)[O-])c1 | 142 |
| COc1ccc2c(c1OC)CCCC(C(=O)O)=C2 | 208 to 209 |
| COC(=O)C(=O)c1ccc(OCCOc2ccccc2F)cc1 | 112 to 113 |
| Cc1oc(-c2ccccc2)nc1COc1ccc(CCCCc2nnn[nH]2)cn1 | 104 to 105 |
| COc1ccc(CCNc2cc(-c3ccco3)nc(-c3nccs3)n2)cc1OC | 83 to 83.8 |
| CCOC(=O)Cc1sc(Sc2ncccc2C(=O)OCC)nc1C | 181 to 183 |
| Cc1nccn1-c1nc(-c2ccc(Cl)cc2)c(CCCCO)o1 | 110 to 111 |
| C=CC(=O)OCc1cn(-c2ccccc2)nn1 | 55 to 56 |
| CC(C)(COC(=O)c1cc(Cl)c(O)c(Cl)c1)Cc1ccc(CC(C)(C)COC(=O)c2cc(Cl)c(O)c(Cl)c2)cc1 | 203 to 204 |
| Clc1cc(Cl)c2nc3c4ccccc4c4ccccc4c3nc2c1 | 221 to 222 |
| CCCc1c(OCC(O)CSc2ccc(CC(=O)O)c(Cl)c2Cl)ccc(C(C)=O)c1O (stereo not given) | 151 to 153 |
